In patent US20240383906A1, “5-SUBSTITUTED PYRIDINE-2(1H)-KETONE COMPOUND AND USE THEREOF” (JIANGSU KANION PHARMACEUTICAL CO., LTD., priority 2021, published 2024):

Tests used:
[1] = Pharmacokinetic evaluation in mice; type: in vivo; conditions: male CD-1 mice
Description: • CD-1 mice (male, 7 to 9 weeks old, Shanghai SLAC)
The pharmacokinetic characteristics of the compound in rodents were tested using a standard protocol after intravenous injection (IV) and oral (PO) administration. In the experiment, mice were given a single intravenous injection and oral administration. The solvent for the intravenous injection was water. The solvent for oral administration was 0.5% hydroxypropyl methylcellulose. This project involved four male CD-1 mice. Two of the mice were administered a dose of 0.5 mg/kg via intravenous injection. Plasma samples were collected at 0 hours (before administration) and at 0.083, 0.25, 0.5, 1, 2, 4, 8, and 24 hours after administration. The other two mice were administered a dose of 2.5 mg/kg via oral gavage. Plasma samples were collected at 0 h (before administration) and at 0.25, 0.5, 1, 2, 4, 8, and 24 hours after administration. Whole blood samples were collected within 24 hours, centrifuged at 3000 g for 15 minutes, and the supernatant was separated to obtain plasma samples. Four times the volume of acetonitrile solution containing an internal standard was added to precipitate the protein. After centrifugation, the supernatant was collected, an equal volume of water was added, and it was centrifuged again to collect the supernatant for sampling. The plasma concentration was quantitatively analyzed by LC-MS/MS analysis method, and the pharmacokinetic parameters were calculated, such as peak concentration (Cmax), clearance rate (CL), half-life (T1/2), volume of distribution at steady state (Vdss), area under drug-time curve (AUC0-last), bioavailability (F).

Capan-2 cells = assay: Capan-2 cell anti-proliferative activity test; type: cell-based; conditions: Homo sapiens, Capan-2, 120 h; 5 days, CellTiter-Glo
Description: Capan-2 cells were provided by Wuhan Heyan Biomedical Technology Co., Ltd., and CellTiter-Glo was purchased from Promega.
Capan-2 cells were seeded in a white 96-well plate, with 80 μL of cell suspension per well, each containing 5,000 Capan-2 cells. The cell plate was placed in a carbon dioxide incubator for overnight culture.
The test compounds were 3-fold diluted with a multi-channel pipette to the 9th concentration, i.e., diluted from 200 μM to 30 nM, and duplicate experiment was set. 78 μL of culture medium was added to an intermediate plate, and then 2 μL of gradient diluted compound per well was transferred to the intermediate plate according to the corresponding position. After mixing well, the compound was transferred to the cell plate at 20 μL per well. The cell plate was placed in a carbon dioxide incubator and cultured for 5 days. Another cell plate was prepared, and the signal value was read on the day of drug administration to serve as the maximum value (Max value in the equation below) for data analysis. 25 μL of cell viability chemiluminescence detection reagent was added to each well of this cell plate, and it was incubated at room temperature for 10 minutes to stabilize the luminescent signal. A multimode microplate reader was used for reading.
After the cell plate was cultured for 5 days, 25 μL of Promega CellTiter-Glo reagent was added to each well of the cell plate, and it was incubated at room temperature for 10 minutes to stabilize the luminescent signal. A multimode microplate reader was used for reading.
The IC50 value could be obtained through curve fitting, and the results of the inhibitory activity of the compounds of the present disclosure on the proliferation of Capan-2 cells are shown in Table 11.

[2] = Toxicological evaluation (with toxicokinetics) of rats administered for 21 consecutive days; conditions: SD, rat, in vivo, po
Description: • SD rats (male and female, 7 to 8 weeks old, Zhejiang Vital River Laboratory Animal Technology Co., Ltd.).
• In this experiment, SD rats were administered orally once a day with a test substance, a candidate drug for treating cancer, for 21 days to detect its potential toxicity. At the same time, the toxicokinetic (TK) characteristics of the compound in the animals were examined.
126 rats (63 per gender) were divided into 6 groups. In the main test administration groups, each group had 5 males and 5 females. In the TK test control group, there were 3 males and 3 females. In the administration groups, each group had 6 males and 6 females. The compound was administered once a day at doses of 1, 3, 10, 20 milligrams per kilogram per day (mg/kg/day). The control group was only given the solvent. The volume of administration was 10 mL/kg. At the start of administration, the animals were 7 to 8 weeks old, with male weights ranging from 251.11 to 308.11 grams, and female weights from 181.53 to 219.03 grams.
The evaluation items include mortality (moribund/death), clinical symptoms, body weight, food consumption, clinical pathology (hematology, serum biochemistry, coagulation), gross (necropsy) evaluation, organ weights, histopathological evaluation, and toxicokinetics. The toxicokinetic parameters include peak concentration (Cmax), time to maximum drug concentration (Tmax), and area under the drug-time curve (AUC0-last).

[3] = female, 1 mg/kg/day, female, oral 1 mg/kg/day, Day 1
[4] = female, 1 mg/kg/day, female, oral 1 mg/kg/day, Day 21
[5] = female, 3 mg/kg/day, female, oral 3 mg/kg/day, Day 1
[6] = female, 3 mg/kg/day, female, oral 3 mg/kg/day, Day 21
[7] = female, 10 mg/kg/day, female, oral 10 mg/kg/day, Day 1
[8] = female, 10 mg/kg/day, female, oral 10 mg/kg/day, Day 21
[9] = female, 20 mg/kg/day, female, oral 20 mg/kg/day, Day 1
[10] = female, 20 mg/kg/day, female, oral 20 mg/kg/day, Day 21
[11] = male, 1 mg/kg/day, male, oral 1 mg/kg/day, Day 1
[12] = male, 1 mg/kg/day, male, oral 1 mg/kg/day, Day 21
[13] = male, 3 mg/kg/day, male, oral 3 mg/kg/day, Day 1
[14] = male, 3 mg/kg/day, male, oral 3 mg/kg/day, Day 21
[15] = male, 10 mg/kg/day, male, oral 10 mg/kg/day, Day 1
[16] = male, 10 mg/kg/day, male, oral 10 mg/kg/day, Day 21
[17] = male, 20 mg/kg/day, male, oral 20 mg/kg/day, Day 1
[18] = male, 20 mg/kg/day, male, oral 20 mg/kg/day, Day 21

## Cn1cc(-c2cnc(CNc3nccn4c(-c5cc(F)cc(F)c5)cnc34)cn2)ccc1=O [Compound 2]
[1]; IV 0.5 mg/kg, PO 2.5 mg/kg
  F: 29.4%
[1]; mouse, plasma, IV 0.5 mg/kg
  clearance: 0.322 L/h/kg
[1]; mouse, plasma, IV 0.5 mg/kg, read-out: T1/2 (IV) (converted)
  half-life: 5.99 h
[1]; mouse, plasma, IV 0.5 mg/kg, read-out: Vdss
  Vd: 0.568 L/kg
[1]; mouse, plasma, PO 2.5 mg/kg, read-out: AUC0-last (PO)
  AUC(0-t): 20.5 µM·h
[1]; mouse, plasma
  Cmax: 1.76 µM
Capan-2 cells
  IC50: 6.07 nM
[2]; [3]
  Cmax: 1.02 µM
  Tmax: 4 h
[2]; female, 1 mg/kg/day, female, oral 1 mg/kg/day, Day 1, read-out: AUC0-24 h
  AUC(0-t): 14.5 µM·h
[2]; [4]
  Cmax: 1.58 µM
  Tmax: 8 h
[2]; female, 1 mg/kg/day, female, oral 1 mg/kg/day, Day 21, read-out: AUC0-24 h
  AUC(0-t): 25.6 µM·h
[2]; [5]
  Cmax: 2.27 µM
  Tmax: 8 h
[2]; female, 3 mg/kg/day, female, oral 3 mg/kg/day, Day 1, read-out: AUC0-24 h
  AUC(0-t): 33.2 µM·h
[2]; [6]
  Cmax: 4.18 µM
  Tmax: 8 h
[2]; female, 3 mg/kg/day, female, oral 3 mg/kg/day, Day 21, read-out: AUC0-24 h
  AUC(0-t): 63.8 µM·h
[2]; [7]
  Cmax: 3.93 µM
  Tmax: 4 h
[2]; female, 10 mg/kg/day, female, oral 10 mg/kg/day, Day 1, read-out: AUC0-24 h
  AUC(0-t): 77.7 µM·h
[2]; [8]
  Cmax: 8.8 µM
  Tmax: 8 h
[2]; female, 10 mg/kg/day, female, oral 10 mg/kg/day, Day 21, read-out: AUC0-24 h
  AUC(0-t): 144 µM·h
[2]; [9]
  Cmax: 6.17 µM
  Tmax: 8 h
[2]; female, 20 mg/kg/day, female, oral 20 mg/kg/day, Day 1, read-out: AUC0-24 h
  AUC(0-t): 101 µM·h
[2]; [10]
  Cmax: 10.3 µM
  Tmax: 8 h
[2]; female, 20 mg/kg/day, female, oral 20 mg/kg/day, Day 21, read-out: AUC0-24 h
  AUC(0-t): 179 µM·h
[2]; [11]
  Cmax: 0.97 µM
  Tmax: 8 h
[2]; male, 1 mg/kg/day, male, oral 1 mg/kg/day, Day 1, read-out: AUC0-24 h
  AUC(0-t): 12.5 µM·h
[2]; [12]
  Cmax: 1.62 µM
  Tmax: 8 h
[2]; male, 1 mg/kg/day, male, oral 1 mg/kg/day, Day 21, read-out: AUC0-24 h
  AUC(0-t): 22.4 µM·h
[2]; [13]
  Cmax: 1.88 µM
  Tmax: 8 h
[2]; male, 3 mg/kg/day, male, oral 3 mg/kg/day, Day 1, read-out: AUC0-24 h
  AUC(0-t): 23.1 µM·h
[2]; [14]
  Cmax: 3.5 µM
  Tmax: 8 h
[2]; male, 3 mg/kg/day, male, oral 3 mg/kg/day, Day 21, read-out: AUC0-24 h
  AUC(0-t): 50.1 µM·h
[2]; [15]
  Cmax: 2.96 µM
  Tmax: 4 h
[2]; male, 10 mg/kg/day, male, oral 10 mg/kg/day, Day 1, read-out: AUC0-24 h
  AUC(0-t): 47.4 µM·h
[2]; [16]
  Cmax: 6.87 µM
  Tmax: 8 h
[2]; male, 10 mg/kg/day, male, oral 10 mg/kg/day, Day 21, read-out: AUC0-24 h
  AUC(0-t): 110 µM·h
[2]; [17]
  Cmax: 4.24 µM
  Tmax: 8 h
[2]; male, 20 mg/kg/day, male, oral 20 mg/kg/day, Day 1, read-out: AUC0-24 h
  AUC(0-t): 76.6 µM·h
[2]; [18]
  Cmax: 7.34 µM
  Tmax: 8 h
[2]; male, 20 mg/kg/day, male, oral 20 mg/kg/day, Day 21, read-out: AUC0-24 h
  AUC(0-t): 123 µM·h
